# Measurements from PubChem BioAssay (NCI).
# Values joined by “and” are separate entries in the source; they are usually repeats but may differ in a detail not shown here. Identical values can stand only once.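 Compound exposure: 48 hours, 5 concentrations, 96-well plates. At the GI50, growth is halved. TGI is the concentration that stops growth completely.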
# Legend:
# Assay in all cases: inhibition of tumour cell growth, NCI panel, 48 h
# COLO 205 colon = tested on: COLO 205 colon
# HCT-15 colon = tested on: HCT-15 colon
# IGROV1 ovarian = tested on: IGROV1 ovarian
# RPMI-8226 leukemia = tested on: RPMI-8226 leukemia
# SK-OV-3 ovarian = tested on: SK-OV-3 ovarian
# SNB-19 CNS = tested on: SNB-19 CNS
# SNB-78 CNS = tested on: SNB-78 CNS
# UO-31 renal = tested on: UO-31 renal
# DMS 273 small cell lung = tested on: DMS 273 small cell lung
# MDA-MB-435 = tested on: MDA-MB-435
Compound,TGI (COLO 205 colon),TGI (HCT-15 colon),TGI (IGROV1 ovarian),TGI (RPMI-8226 leukemia),TGI (SK-OV-3 ovarian),TGI (SNB-19 CNS),TGI (SNB-78 CNS),TGI (UO-31 renal),TGI (DMS 273 small cell lung),TGI (MDA-MB-435),GI50 (COLO 205 colon),GI50 (HCT-15 colon),GI50 (IGROV1 ovarian),GI50 (MDA-MB-435),GI50 (RPMI-8226 leukemia),GI50 (SK-OV-3 ovarian),GI50 (SNB-19 CNS),GI50 (UO-31 renal)
COC(=O)[C@]1(C)C(OC)=CC(=O)C2C1[C@H]1CCC[C@@H]21 (stereo partly drawn),> 100 µM,> 100 µM,> 100 µM,> 100 µM,> 100 µM,> 100 µM,> 100 µM,> 100 µM,–,–,–,–,–,–,–,–,–,–
COC(=O)C(CC(=O)c1c[nH]c2ccccc12)c1c[nH]c2ccccc12 (stereo not drawn),–,36.3 µM,> 10 µM,44.8 µM,69.9 µM,–,58.2 µM,39.3 µM,27.6 µM,–,–,–,–,–,–,–,–,–
S=P(N1CCCC1)(N1CC1)N1CC1,> 100 µM,> 100 µM,> 100 µM,> 100 µM,> 100 µM,> 100 µM,> 100 µM,> 100 µM,> 100 µM,–,–,–,–,–,–,–,–,–
COc1cc(C2c3cc4c(cc3[C@@H](OCCN(C)C)C3COC(=O)[C@H]23)OCO4)cc(OC)c1O (stereo partly drawn),16 µM,3.12 µM,4.97 µM,–,1.6 µM,> 22.3 µM,> 100 µM,2.04 µM,0.632 µM,–,–,–,–,–,–,–,–,–
O=c1cc(-c2ccccn2)[nH]c2cc(F)ccc12,> 100 µM,–,> 100 µM,> 100 µM,> 100 µM,> 100 µM,> 100 µM,> 100 µM,–,–,–,–,–,–,–,–,–,–
CCCCCCCCCCCCCCCCCCNC(=O)OCC(CNS(=O)(=O)CCC[n+]1cccc2ccccc21)COC (stereo not drawn),–,59.2 µM,–,> 100 µM,> 24.5 µM,6.13 µM,7.92 µM,> 75.1 µM,–,4.94 µM,–,–,–,–,–,–,–,–
CC1=NOC(=O)C1N=Nc1ccc(Br)c(C)c1 (stereo not drawn),52.9 µM,41.6 µM,39.4 µM,40.7 µM,97.8 µM,92.8 µM,62.8 µM,–,45.6 µM,–,–,–,–,–,–,–,–,–
COc1ccc(/C=C\c2cc(OC)c(OC)c(OC)c2)c(NS(=O)(=O)c2ccc(Cl)cc2)c1O,5.76 µM,> 100 µM,49.5 µM,20.5 µM,24.3 µM,> 100 µM,–,26.4 µM,–,0.0525 µM,1.74 µM,0.053 µM,0.379 µM,0.0222 µM,0.207 µM,0.229 µM,0.807 µM,0.0739 µM
COC(=O)c1ccc2c(c1)C(=O)c1c-2n(CCCN)c(=O)c2cc(OC)c(OC)cc12,27.7 µM,30.5 µM,29.2 µM,12.5 µM,49.4 µM,42.6 µM,–,> 56.2 µM,–,46.2 µM,12.4 µM,14.1 µM,13.6 µM,21.6 µM,5.77 µM,20.3 µM,19.5 µM,21 µM
COc1nc(C)cc2c(=O)n(-c3ccccc3)n(CC(O)CN3CCN(c4ccc(Cl)cc4)CC3)c(=O)c12 (stereo not drawn),> 50 µM,> 50 µM,> 50 µM,> 50 µM,> 50 µM,> 50 µM,–,> 50 µM,–,> 50 µM,> 50 µM,> 50 µM,> 50 µM,> 50 µM,> 50 µM,22.3 µM,17.5 µM,46.6 µM
CCN(CC)CCOc1c(OC)c(Br)cc2c(C)c(C(=O)OC)oc12,3.68 µM,2.46 µM,7.05 µM,0.834 µM,4.1 µM,10.7 µM,–,50 µM,–,2.62 µM,0.925 µM,0.864 µM,1.4 µM,1.03 µM,0.186 µM,1.29 µM,2.31 µM,3.19 µM
CC(=O)c1cc(-c2ccccc2N)n(-c2ccc3c(c2)OCO3)c1C,1.32 µM,> 100 µM,> 100 µM,19.3 µM,45.3 µM,> 100 µM,–,45.5 µM,–,0.434 µM,0.328 µM,0.296 µM,0.529 µM,0.163 µM,0.351 µM,0.292 µM,0.299 µM,0.696 µM
COC(=O)[C@H]1[C@H]2C[C@@H]3c4[nH]c5cc(OC)ccc5c4CCN3C[C@H]2C[C@@H](OC(=O)/C=C/c2cc(OC)c(OC)c(OC)c2)[C@@H]1OC,14.8 µM,> 100 µM,34.6 µM,85.1 µM,32.3 µM,> 100 µM,–,33.5 µM,–,19.4 µM,3.69 µM,4.32 µM,6.72 µM,3.22 µM,4.05 µM,15.4 µM,6.46 µM,9.63 µM
Cc1nn(CNc2ccccc2C(F)(F)F)c(=S)n1/N=C/c1ccc(F)cc1,> 100 µM,> 100 µM,> 100 µM,> 100 µM,> 100 µM,> 100 µM,–,> 100 µM,–,> 100 µM,53.2 µM,53.7 µM,> 100 µM,> 100 µM,48.5 µM,> 100 µM,94 µM,> 100 µM
COc1cc2c(c(OC)c1OC)-c1ccc(O)c(=O)cc1[C@@H](NC(C)=O)CC2,> 100 µM and 35.4 µM,> 100 µM and 28 µM,> 100 µM and 82.4 µM,> 100 µM and 36.9 µM,> 100 µM,> 100 µM,–,63.8 µM and 89 µM,–,> 100 µM and 47.4 µM,4.1 µM,5.04 µM,4.76 µM,14.3 µM,8.15 µM,11 µM,7.14 µM,4.42 µM
CCOC(=O)Cc1csc(N=Nc2c(O)[nH]c3ccccc23)n1,> 100 µM,> 100 µM,> 100 µM,> 100 µM,> 100 µM,> 100 µM,–,> 100 µM,–,> 100 µM,–,–,–,–,–,–,–,–
CS(=O)(=O)NNS(=O)(=O)c1ccc(Cl)cc1,> 100 µM,> 100 µM,> 100 µM,> 100 µM,–,> 100 µM,–,> 100 µM,> 100 µM,–,–,–,–,–,–,–,–,–
CCCCCCNC(=O)Oc1ccc(/C(=C(/C)Cc2ccc(OC)cc2)c2ccc(OCCN(C)C)cc2)cc1,9.79 µM,6.6 µM,9.6 µM,2.7 µM,9.5 µM,10.4 µM,–,8.03 µM,–,9.17 µM,4.71 µM,2.02 µM,4.62 µM,4.62 µM,0.983 µM,4.99 µM,5.6 µM,3.87 µM
